The text below walks through data of PubChem BioAssay AID330 (DTP/NCI, 2004).

This assay has as its system P388 leukemia ip, CD2F1 mice, survival T/C. The assay can be described thus: NCI In Vivo Anticancer Drug Screen. Data for tumor model P388 Leukemia (intraperitoneal) in CD2F1 (CDF1) mice. Conditions: endpoint: median survival time, higher = longer survival. The essentials: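 Mice carrying the transplanted tumor received test compound or vehicle. Survival was recorded in each group, and the value is the treated-group measurement divided by that of the vehicle-treated control group.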

The mark [1] stands for this setting: dose: 50.0 mg/kg/injection, schedule: Q01DX009 (ip), vehicle: saline with Tween-80.
The mark [2] stands for this setting: dose: 100.0 mg/kg/injection, schedule: Q01DX009 (ip), vehicle: saline with Tween-80.
Where [3] appears, read: dose: 200.0 mg/kg/injection, schedule: Q01DX009 (ip), vehicle: saline with Tween-80.
Where [4] appears, read: dose: 60.0 mg/kg/injection, schedule: Q01DX005 (ip), vehicle: Klucel (hydroxypropylcellulose) (HPC).
[5] abbreviates: dose: 120.0 mg/kg/injection, schedule: Q01DX005 (ip), vehicle: Klucel (hydroxypropylcellulose) (HPC).
[6] abbreviates: dose: 240.0 mg/kg/injection, schedule: Q01DX005 (ip), vehicle: Klucel (hydroxypropylcellulose) (HPC).
Where [7] appears, read: dose: 50.0 mg/kg/injection, schedule: Q01DX005 (ip), vehicle: saline with Tween-80.
The mark [8] stands for this setting: dose: 100.0 mg/kg/injection, schedule: Q01DX005 (ip), vehicle: saline with Tween-80.
[9] abbreviates: dose: 200.0 mg/kg/injection, schedule: Q01DX005 (ip), vehicle: saline with Tween-80.
[10] abbreviates: dose: 100.0 mg/kg/injection, schedule: Q04DX002 (ip), vehicle: saline with Tween-80.
Where [11] appears, read: dose: 200.0 mg/kg/injection, schedule: Q04DX002 (ip), vehicle: saline with Tween-80.
Where [12] appears, read: dose: 60.0 mg/kg/injection, schedule: Q01DX005 (ip), vehicle: saline with Tween-80.
The mark [13] stands for this setting: dose: 200.0 mg/kg/injection, schedule: Q04DX003 (ip), vehicle: saline with Tween-80.

Several values for one entry are separate records, joined by “and”; a condition that tells them apart may be missing. Equal entries are not always repeated. Inconclusive results and toxic doses are left out.

On to `O=C1/C(=C/c2cccnc2)SC(=S)N1Cc1ccco1`, for which the T/C under setting [1] was 97 % of control, the T/C under setting [2] was 94 % of control and the T/C under setting [3] was 90 % of control.
On to `Clc1ccc(C(Nc2nncs2)Nc2nncs2)cc1Cl`, for which the T/C is 94 % of control under setting [4], 96 % of control under setting [5] and 102 % of control under setting [6].
Turning to `Cc1ccc2c(c1)=N/C(=N/c1[nH]c(O)c3ccccc13)N=2`, the T/C is 100 % of control and 96 % of control under setting [1]; 99 % of control under setting [2].
`OC1(CN2CCCCC2)CCCOCCCOCCCOCCCOCCCOCCC1`: the T/C was 94 % of control under setting [7], 99 % of control under setting [8] and 100 % of control under setting [9].
Regarding `CC1(C)OC(c2ccccc2)=CC1=O`, the T/C was 101 % of control under setting [10] and 101 % of control under setting [11].
`O=C1c2ccccc2C(=O)c2cc3c(cc21)C1OC3C2=C1CC1C(=O)OC(=O)C1C2` (stereo not given): the T/C by setting is: under setting [7], 111 % of control; under setting [8], 93 % of control; under setting [9], 94 % of control.
In the case of `CCC(c1ccc(OCCS(=O)(=O)Oc2ccccc2)cc1)C(CC)c1ccc(OCCS(=O)(=O)Oc2ccccc2)cc1` (stereo not given), the T/C runs as follows: (dose: 100.0 mg/kg/injection, schedule: Q04DX003 (ip), vehicle: suspension in saline) 99 % of control; (dose: 200.0 mg/kg/injection, schedule: Q04DX003 (ip), vehicle: suspension in saline) 98 % of control; (dose: 400.0 mg/kg/injection, schedule: Q04DX003 (ip), vehicle: suspension in saline) 98 % of control.
As to `CNC(=O)OCc1c(COC(=O)NC)c(-c2ccc(S(=O)(=O)c3ccccc3)cc2)n(C)c1C`, the T/C was 154 % of control (dose: 12.5 mg/kg/injection, schedule: Q01DX009 (ip), vehicle: distilled water + Tween-80); 153 % of control (dose: 40.0 mg/kg/injection, schedule: Q01DX009 (ip), vehicle: distilled water + Tween-80); 100 % of control (dose: 50.0 mg/kg/injection, schedule: Q01DX009 (ip), vehicle: distilled water + Tween-80); 153 % of control (dose: 80.0 mg/kg/injection, schedule: Q01DX009 (ip), vehicle: distilled water + Tween-80).
On to `CCOC(=O)c1cc2c(ccc3ccccc32)[nH]1`, for which the T/C reads like this: under setting [12], 97 % of control; (dose: 120.0 mg/kg/injection, schedule: Q01DX005 (ip), vehicle: saline with Tween-80) 89 % of control.
For the compound `O=C1SCCC1CO` (stereo not given), the T/C was 100 % of control (dose: 25.0 mg/kg/injection, schedule: Q04DX003 (ip), vehicle: saline) and 106 % of control (dose: 50.0 mg/kg/injection, schedule: Q04DX003 (ip), vehicle: saline).
`FC(F)(F)C1(C(F)(F)F)OP2(c3ccccc3)(OC(C(F)(F)F)(C(F)(F)F)c3ccccc32)c2ccccc21`: the T/C is, setting by setting: (dose: 50.0 mg/kg/injection, schedule: Q01DX005 (ip), vehicle: Klucel (hydroxypropylcellulose) (HPC)) 98 % of control; (dose: 100.0 mg/kg/injection, schedule: Q01DX005 (ip), vehicle: Klucel (hydroxypropylcellulose) (HPC)) 91 % of control; (dose: 200.0 mg/kg/injection, schedule: Q01DX005 (ip), vehicle: Klucel (hydroxypropylcellulose) (HPC)) 100 % of control.
Consider `CCCCCC#CC(=O)OC`, for which the T/C was 109 % of control (dose: 25.0 mg/kg/injection, schedule: Q01DX009 (ip), vehicle: saline with Tween-80); 109 % of control under setting [1]; 104 % of control under setting [2]; 118 % of control under setting [3].
Turning to `CN(C)c1ccc(C(=O)C(=O)c2ccccc2)cc1`, the T/C (dose: 100.0 mg/kg/injection, schedule: Q04DX003 (ip), vehicle: Klucel (hydroxypropylcellulose) (HPC)) is 106 % of control; the T/C (dose: 200.0 mg/kg/injection, schedule: Q04DX003 (ip), vehicle: Klucel (hydroxypropylcellulose) (HPC)) is 99 % of control; the T/C (dose: 400.0 mg/kg/injection, schedule: Q04DX003 (ip), vehicle: Klucel (hydroxypropylcellulose) (HPC)) was 100 % of control.
`CCCCOC(=O)c1ccccc1OP(=O)(N(C)C)N(C)C`: the T/C is, setting by setting: (dose: 50.0 mg/kg/injection, schedule: Q01DX005 (ip), vehicle: saline) 107 % of control; (dose: 100.0 mg/kg/injection, schedule: Q01DX005 (ip), vehicle: saline) 103 % of control.
In the case of `O=C1Cc2ccccc2C(=O)N1`, the T/C reads like this: (dose: 100.0 mg/kg/injection, schedule: Q04DX003 (ip), vehicle: saline with Tween-80) 100 % of control; under setting [13], 95 % of control.
As for `CCC12C=CCN3CC[C@@]4(c5cc([C@@]6(C(=O)OC)C[C@@H]7CN(CCc8c6[nH]c6ccccc86)C[C@](O)(CC)C7)c(OC)cc5N(C)[C@H]4[C@@](O)(C(=O)NCCCCCCCCCCCC(=O)O)[C@@H]1O)C32` (stereo not given in full), the T/C by setting is: (dose: 11.25 mg/kg/injection, schedule: Q01DX001 (ip), vehicle: other) 164 % of control; (dose: 11.25 mg/kg/injection, schedule: Q01DX001 (ip), vehicle: saline with Tween-80) 153 % of control; (dose: 11.25 mg/kg/injection, schedule: Q01DX001 (ip), vehicle: saline) 189 % of control; (dose: 22.5 mg/kg/injection, schedule: Q01DX001 (ip), vehicle: saline with Tween-80) 164 % of control; (dose: 45.0 mg/kg/injection, schedule: Q01DX001 (ip), vehicle: saline with Tween-80) 182 % of control.
As to `CCOC(=O)c1[nH]cnc1/N=N/N(C)C`, the T/C under setting [2] was 90 % of control; the T/C (dose: 150.0 mg/kg/injection, schedule: Q04DX003 (ip), vehicle: saline with Tween-80) is 120 % of control; the T/C under setting [13] is 150 % of control.
Take `CC1(C)CCC2(C(=O)O)CCC3(C)C(=CCC4C5(C)CC(O)C(O)C(C)(C(=O)O)C5CCC43C)C2C1` (stereo not given): the T/C is 96 % of control (dose: 1.0 mg/kg/injection, schedule: Q01DX005 (ip), vehicle: saline); 94 % of control (dose: 2.03 mg/kg/injection, schedule: Q01DX005 (ip), vehicle: saline); 87 % of control (dose: 4.06 mg/kg/injection, schedule: Q01DX005 (ip), vehicle: saline); 90 % of control (dose: 8.12 mg/kg/injection, schedule: Q01DX005 (ip), vehicle: saline).
For the compound `Nc1nnc(-c2cc(=O)c3cc(Cl)ccc3o2)s1`, the T/C is 97 % of control under setting [7], 100 % of control under setting [8] and 93 % of control under setting [9].
With `Cc1ccc(C(C)C)c2c1CN(CCN1COc3c(C(C)C)ccc(C)c3C1)CO2`, the T/C was 99 % of control (dose: 15.0 mg/kg/injection, schedule: Q01DX005 (ip), vehicle: saline with Tween-80); 98 % of control (dose: 30.0 mg/kg/injection, schedule: Q01DX005 (ip), vehicle: saline with Tween-80); 91 % of control under setting [12].
For the compound `O=C1c2ccccc2S(=O)(=O)CC12OC2c1ccc(Cl)cc1` (stereo not given), the T/C under setting [10] is 88 % of control; the T/C under setting [11] was 88 % of control; the T/C (dose: 400.0 mg/kg/injection, schedule: Q04DX002 (ip), vehicle: saline with Tween-80) is 94 % of control.
On to `COc1cc(C2c3cc4c(cc3OC3(N5CCCC5)CCCCC23)OCO4)cc(OC)c1OC` (stereo not given), for which the T/C by setting is: under setting [4], 99 % of control; under setting [5], 93 % of control; under setting [6], 96 % of control.
